The values that follow come from PMC3257521 (Biochemistry, 2011).

“And” between values parts separate entries of the source, which are not always exact repeats. Identical values can stand only once. Bounds are passed on as bounds.

What is called Km is the substrate concentration at which the rate is half of its maximum. What is called Ki is a dissociation constant, usually derived from enzyme kinetics or from competition with a known ligand. For orientation: kcat means the number of substrate molecules converted per active site and unit of time at saturation.

Series [1] has as its target T1, Pnc1 (Saccharomyces cerevisiae, UniProt P53184). In kind it is biochemical, S. cerevisiae.
Series [2] addresses T1, Pnc1. In words: 15N kinetic isotope effect with substrates. In kind it is biochemical, S. cerevisiae.
The target in series [3] is T1, Pnc1. In words: 13C kinetic isotope effect with substrates. In kind it is biochemical, S. cerevisiae.
The test system of series [4] is nicotinamidase from M. lysodeikticus. The note with it: cited from earlier work.
Series [5] addresses T1, Pnc1. Briefly: Pnc1 competitive inhibition. In kind it is biochemical, S. cerevisiae.
Series [6] deals with nicotinamidase from M. lysodeikticus. The note with it: cited from earlier work. The source holds these as a separate data set.
The next series deals with S. cerevisiae Pnc1. The note with it: cited from earlier work.
Series [7] has as its target nicotinamidase from Mycobacterium tuberculosis. As to conditions: cited from earlier work.
The target of series [8] is T1, Pnc1. Briefly: Dependence of kcat on pH. In kind it is biochemical, S. cerevisiae. The note with it: pH 4.5 to 10.5.
The conditions of series [9]: 25 °C in 0.1 N NaOH; cited from earlier work.
The test system of another series is yeast nicotinamidases. The note with it: previous reports; cited from earlier work.
A short description of series [10]: Literature hydrolysis in basic solution. In kind it is physicochemical. The note with it: 25 °C in 0.1 N NaOH.
Series [11] deals with nicotinamidase from S. cerevisiae. As to conditions: cited from earlier work.
In series [12] the test system is nicotinamidase from M. tuberculosis. As to conditions: cited from earlier work.
Series [13] addresses Pnc1 WT or mutant (Saccharomyces cerevisiae, UniProt P53184, C167A). In words: Steady-state kinetic parameters of Pnc1 mutants, enzyme-coupled assay. In kind it is biochemical, S. cerevisiae. As to conditions: substrate nicotinamide.
Series [14] deals with Pnc1 WT or mutant. The series is described as above. In kind it is biochemical, S. cerevisiae. As to conditions: substrate nicotinamide; for kcat: pH 7.5.
Series [15] deals with Pnc1 WT or mutant. In words: 15N kinetic isotope effect of Pnc1 mutants. In kind it is biochemical, S. cerevisiae. As to conditions: substrate nicotinamide, pH 7.5.
The target of series [16] is Pnc1 WT or mutant (Saccharomyces cerevisiae, UniProt P53184, K122R). Briefly: 13C kinetic isotope effect of Pnc1 mutants. In kind it is biochemical, S. cerevisiae. The note with it: substrate nicotinamide.
In series [17] the test system is Pnc1 WT or mutant. In words: 13C kinetic isotope effect of Pnc1 mutants. The note with it: substrate nicotinamide, pH 7.5. In kind it is biochemical, S. cerevisiae.

T1 sequence (P53184 whole entry): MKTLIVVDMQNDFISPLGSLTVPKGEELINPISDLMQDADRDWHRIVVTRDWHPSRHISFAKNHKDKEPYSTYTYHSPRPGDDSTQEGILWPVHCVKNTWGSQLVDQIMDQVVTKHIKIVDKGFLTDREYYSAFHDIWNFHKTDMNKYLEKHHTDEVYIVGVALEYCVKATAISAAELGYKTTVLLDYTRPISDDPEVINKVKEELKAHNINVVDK

As to `Cc1cncc(C(N)=O)c1` [5-methylnicotinamide], the “fold higher Km compared to nicotinamide” value on Pnc1 [1] was 6 fold. For the same molecule, the “15N KIE” value at Pnc1 [2] (on V/K, pH 7.5) came to 1.0151 ± 0.0009. In addition, at Pnc1 [3] (on V/K, pH 7.5), the “13C KIE” value was found to be 1.0269 ± 0.0037. Moreover, the Michaelis-Menten constant (Km) in series [4] is 360 µM.
`O=Cc1cccnc1` [nicotinaldehyde]: the inhibitory constant (Ki) at Pnc1 [5] is 940 ± 350 nM; in series [6], 18 nM; at S. cerevisiae Pnc1 it was 1400 nM; in series [7] it was 290 nM. Also, on Pnc1 [5] (vs Km 9.6 µM for nicotinamide), the “Ki fold below the Km value of nicotinamide” value amounted to 10 fold.
As to `NC(=O)c1cccnc1` [nicotinamide], the kcat at Pnc1 [1] (substrate of Pnc1, pH 7.5) was determined as 0.69 s⁻¹. Besides, the “15N KIE” value on Pnc1 [2] (as percent) is ~ 1.2% and 1.2%; on Pnc1 [2] (on V/K, pH 7.5) it was 1.0122 ± 0.0002. Moreover, the “13C KIE” value on Pnc1 [3] (as percent) was ~ 1.2%; on Pnc1 [3] (on V/K, pH 7.5), 1.0125 ± 0.0004. The “critical ionizations in kcat pH profile” value at Pnc1 [8] is recorded as “no critical ionizations”. In addition, the “variation of kcat between the pH extremes” value on Pnc1 [8] was found to be 4 fold. Moreover, the “pseudo-first-order rate of hydrolysis in basic solutions” value in series [9] was 0.0301 h⁻¹. For the same molecule, the Km with yeast nicotinamidases is 6 to 10 µM.
On to `NC(=O)c1ccccc1` [benzamide], for which, at Pnc1 [1], the “fold decreased kcat/Km compared to nicotinamide” value was 200 fold and the “fold lower kcat compared to nicotinamide” value is recorded as 78 fold. Besides, the “fold slower hydrolysis rate compared to nicotinamide” value in series [10] was 7 fold. Besides, the “pseudo-first-order rate of hydrolysis in basic solutions” value in series [9] is 0.00408 h⁻¹.
Consider `NC(=O)c1cnccn1` [pyrazinamide], for which the “fold decreased kcat/Km compared to nicotinamide” value on Pnc1 [1] amounted to 4.5 fold. For the same molecule, the “fold faster kcat compared to nicotinamide” value on Pnc1 [1] turned out to be 3.7 fold. The “fold higher Km compared to nicotinamide” value on Pnc1 [1] was found to be 16 fold. Also, the “15N KIE” value on Pnc1 [2] (as percent) is recorded as 2.3%; on Pnc1 [2] (on V/K, pH 7.5), 1.0231 ± 0.0007. Also, the “13C KIE” value on Pnc1 [3] (as percent) is 2.0%; at Pnc1 [3] (on V/K, pH 7.5), 1.0196 ± 0.0023. Besides, the figures for the Michaelis-Menten constant (Km) in [11] and in [12] were 200 µM and 300 µM, respectively.

B1: C167A (protein, UniProt P53184 1-216, looked up, variant C167A)
Nicotinamidase: MKTLIVVDMQNDFISPLGSLTVPKGEELINPISDLMQDADRDWHRIVVTRDWHPSRHISFAKNHKDKEPYSTYTYHSPRPGDDSTQEGILWPVHCVKNTWGSQLVDQIMDQVVTKHIKIVDKGFLTDREYYSAFHDIWNFHKTDMNKYLEKHHTDEVYIVGVALEYAVKATAISAAELGYKTTVLLDYTRPISDDPEVINKVKEELKAHNINVVDK
Take B1: the nicotinamidase activity entry with Pnc1 WT or mutant [13] is “lost all detectable nicotinamidase activity”. In the series with Pnc1 WT or mutant [14], the kcat was below 0.0005 s⁻¹.

B2: K122R (protein, UniProt P53184 1-216, looked up, variant K122R)
Nicotinamidase: MKTLIVVDMQNDFISPLGSLTVPKGEELINPISDLMQDADRDWHRIVVTRDWHPSRHISFAKNHKDKEPYSTYTYHSPRPGDDSTQEGILWPVHCVKNTWGSQLVDQIMDQVVTKHIKIVDRGFLTDREYYSAFHDIWNFHKTDMNKYLEKHHTDEVYIVGVALEYCVKATAISAAELGYKTTVLLDYTRPISDDPEVINKVKEELKAHNINVVDK
With B2, in the series on Pnc1 WT or mutant [14], the “fold lower kcat compared to Pnc1 WT” value came out at 767 fold and the kcat is 0.0009 ± 0.0002 s⁻¹. The “15N KIE” value with Pnc1 WT or mutant [15] was found to be 1.0127 ± 0.0003. Also, the “13C effect higher than wild-type enzyme” value in the series with Pnc1 WT or mutant [16] was ~ 0.4%. For the same molecule, the “13C KIE” value with Pnc1 WT or mutant [17] amounted to 1.0172 ± 0.0001.
